The text below walks through data of patent US20250195533A1, “COMBINATION THERAPIES FOR THE TREATMENT OF CANCER” (Erasca, Inc., priority 2020, published 2025).

Experiment [1] concerns NCI-H358 cells. The experiment can be described thus: CellTiter-Glo cellular proliferation/viability assay, fixed concentration of KRAS G12C inhibitor. It counts as cell-based. The note with it: Homo sapiens, 120 h, compound of Formula I alone, 5 days, read-out: 2D CTG IC50. The source says:
The combination was studied by a cell viability assay. NCI-H358 cells were split onto a 96-well plate.
In general terms: Cellular ATP, detected with luciferase, serves as a proxy for viable cell number.

Experiment [2] concerns NCI-H2122 cells. Described as above. Format: cell-based. The settings on record: Homo sapiens, NCI-H2122, 120 h, compound of Formula I alone, 5 days, read-out: 2D CTG IC50.

As to `COCOC[C@H]1C[C@H]2COc3c(Sc4cnc(N5CCC6(CC5)CO[C@@H](C)[C@H]6N)c(CO)n4)ccnc3N2C1` [The compound of Formula I], the results for the 50% inhibitory concentration (IC50) in experiment [1] and in experiment [2] were 0.168 µM and 2.79 µM, respectively.
